Laboratory results published in patent US20220363686A1 (AiCuris GmbH & Co. KG, priority 2018, published 2022).
Where two headings read alike, the source gives them in different places.

Tests used:
[1] = Cell viability assay (AlamarBlue); conditions: human, HepAD38 cells
HBV = assay: Determination of HBV DNA from the supernatants of HepAD38 cells (anti-HBV activity); type: cell-based, hepatitis B virus; conditions: Hepatitis B virus, HePAD38, 144 h, HBV DNA in HepAD38 supernatant, day 6, qPCR, read-out: Cell Activity
Procedure: The anti-HBV activity was analysed in the stable transfected cell line HepAD38, which has been described to secrete high levels of HBV virion particles (Ladner et al., 1997). In brief, HepAD38 cells were cultured at 37° C. at 5% CO2 and 95% humidity in 200 μl maintenance medium, which was Dulbecco's modified Eagle's medium/Nutrient Mixture F-12 (Gibco, Karlsruhe), 10% fetal bovine serum (PAN Biotech Aidenbach) supplemented with 50 μg/ml penicillin/streptomycin (Gibco, Karlsruhe), 2 mM L-glutamine (PAN Biotech, Aidenbach), 400 μg/ml G418 (AppliChem, Darmstadt) and 0.3 μg/ml tetracycline. Cells were subcultured once a week in a 1:5 ratio, but were usually not passaged more than ten times. For the assay 60,000 cells were seeded in maintenance medium without any tetracycline into each well of a 96-well plate and treated with serial half-log dilutions of test compound. To minimize edge effects the outer 36 wells of the plate were not used but were filled with assay medium. On each assay plate six wells for the virus control (untreated HepAD38 cells) and six wells for the cell control (HepAD38 cells treated with 0.3 μg/ml tetracycline) were allocated, respectively. In addition, one plate set with reference inhibitors like BAY 41-4109, entecavir, and lamivudine instead of screening compounds were prepared in each experiment. In general, experiments were performed thrice in triplicates. At day 6 HBV DNA from 100 μl filtrated cell culture supernatant (AcroPrep Advance 96 Filter Plate, […] Supor membran, PALL GmbH, Dreieich) was automatically purified on the MagNa Pure LC instrument using the MagNA Pure 96 DNA and Viral NA Small Volume Kit (Roche Diagnostics, Mannheim) according to the instructions of the manufacturer. EC50 values were calculated from relative copy numbers of HBV DNA In brief, 5 μl of the 100 μl eluate containing HBV DNA were subjected to PCR LC480 Probes Master Kit (Roche) together with 1 μM antisense primer […], 0.5 μM sense primer […], 0.3 μM hybprobes […]-FL and LC640-[…]-PH (TIBMolBiol, Berlin) to a final volume of 12.5 μl. The PCR was performed on the Light Cycler 480 real time system (Roche Diagnostics, Mannheim) using the following protocol: Pre-incubation for 1 min at 95° C., amplification: 40 cycles×(10 sec at 95° C., 50 sec at 60° C., 1 sec at 70° C.), cooling for 10 sec at 40° C. Viral load was quantitated against known standards using HBV plasmid DNA of pCH-9/3091 (Nassal et al., 1990, Cell 63: 1357-1363) and the LightCycler 480 SW 1.5 software (Roche Diagnostics, Mannheim) and ECso values were calculated using non-linear regression with GraphPad Prism 6 (GraphPad Software Inc., La Jolla, USA).

[2] = target: HBV core protein (C-terminal truncated core protein containing 149 amino acids of the N-terminal assembly domain) (UniProt P03146); assay: Biochemical capsid assembly assay (fluorescence quenching); set-up: rows headed: Assembly Activity; other: BODIPY-FL labelled core protein, assembly started with NaCl, read after 6 min; conditions: read-out: Assembly Activity; BODIPY-FL labelled core protein, assembly started with NaCl, read after 6 min
HBV core protein (C-terminal truncated core protein containing 149 amino acids of the N-terminal assembly domain), sequence (P03146 whole entry, the tested form may be a part): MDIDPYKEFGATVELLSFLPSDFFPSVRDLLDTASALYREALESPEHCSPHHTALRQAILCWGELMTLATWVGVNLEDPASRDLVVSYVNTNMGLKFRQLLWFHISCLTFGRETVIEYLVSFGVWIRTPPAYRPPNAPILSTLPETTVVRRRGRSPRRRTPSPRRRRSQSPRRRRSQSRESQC
Procedure: The screening for assembly effector activity was done based on a fluorescence quenching assay published by Zotnick et al. (2007). The C-terminal truncated core protein containing 149 amino acids of the N-terminal assembly domain fused to a unique cysteine residue at position 150 and was expressed in E. coli using the pET expression system (Merck Chemicals, Darmstadt). Purification of core dimer protein was performed using a sequence of size exclusion chromatography steps. In brief, the cell pellet from 1 L BL21 (DE3) Rosetta2 culture expressing the coding sequence of core protein cloned NdeI/XhoI into expression plasmid pET21b was treated for 1 h on ice with a native lysis buffer (Qproteome Bacterial Protein Prep Kit; Qiagen, Hilden). After a centrifugation step the supernatant was precipitated during 2 h stirring on ice with 0.23 g/ml of solid ammonium sulfate. Following further centrifugation the resulting pellet was resolved in buffer A (100 mM Tris, pH 7.5; 100 mM NaCl; 2 mM DTT) and was subsequently loaded onto a buffer A equilibrated CaptoCore 700 column (GE HealthCare, Frankfurt). The column flow through containing the assembled HBV capsid was dialyzed against buffer N (50 mM NaHCO3 pH 9.6; 5 mM DTT) before urea was added to a final concentration of 3M to dissociate the capsid into core dimers for 1.5 h on ice. The protein solution was then loaded onto a IL Sephacryl S300 column. After elution with buffer N core dimer containing fractions were identified by SDS-PAGE and subsequently pooled and dialyzed against 50 mM HEPES pH 7.5; 5 mM DTT. To improve the assembly capacity of the purified core dimers a second round of assembly and disassembly starting with the addition of 5 M NaCl and including the size exclusion chromatography steps described above was performed. From the last chromatography step core dimer containing fractions were pooled and stored in aliquots at concentrations between 1.5 to 2.0 mg/ml at −80° C.
Immediately before labelling the core protein was reduced by adding freshly prepared DTT in a final concentration of 20 mM. After 40 min incubation on ice storage buffer and DTT was removed using a Sephadex G-25 column (GE HealthCare, Frankfurt) and 50 mM HEPES, pH 7.5. For labelling 1.6 mg/ml core protein was incubated at 4° C. and darkness overnight with BODIPY-FL maleimide (Invitrogen, Karlsruhe) in a final concentration of 1 mM. After labelling the free dye was removed by an additional desalting step using a Sephadex G-25 column. Labelled core dimers were stored in aliquots at 4° C. In the dimeric state the fluorescence signal of the labelled core protein is high and is quenched during the assembly of the core dimers to high molecular capsid structures. The screening assay was performed in black 384 well microtiter plates in a total assay volume of 10 μl using 50 mM HEPES pH 7.5 and 1.0 to 2.0 μM labelled core protein. Each screening compound was added in 8 different concentrations using a 0.5 log-unit serial dilution starting at a final concentration of 100 μM, 31.6 μM or 10 μM, In any case the DMSO concentration over the entire microtiter plate was 0.5%. The assembly reaction was started by the injection of NaCl to a final concentration of […] which induces the assembly process to approximately 25% of the maximal quenched signal. 6 min after starting the reaction the fluorescence signal was measured using a Clariostar plate reader (BMG Labtech, Ortenberg) with an excitation of 477 nm and an emission of 525 nm. As 100% and 0% assembly control HEPES buffer containing 2.5 M and 0 M NaCl was used. Experiments were performed thrice in triplicates. EC50 values were calculated by non-linear regression analysis using the Graph Pad Prism 6 software (GraphPad Software, La Jolla, USA).

O=C(c1cc2ccccc2[nH]1)N1CCn2ncc(S(=O)(=O)NCCO)c2C1 [Example 29, N-(2-hydroxyethyl)-5-(1H-indole-2-carbonyl)-4H,5H,6H,7H-pyrazolo[1,5-a]pyrazine-3-sulfonamide]
CC50 at 6 days [1]: > 10 µM | EC50 (HBV): < 1 µM | IC50 [2]: < 5 µM

O=C(O)c1cccc(F)c1C1CC(=O)N(c2cnn3c2CN(C(=O)c2cc4ccccc4[nH]2)CC3)C1 (stereo not drawn) [Example 88, 3-fluoro-2-{1-[5-(1H-indole-2-carbonyl)-4H,5H,6H,7H-pyrazolo[1,5-a]pyrazin-3-yl]-5-oxopyrrolidin-3-yl}benzoic Acid]
CC50 at 6 days [1]: > 10 µM | EC50 (HBV; printed as number instead of class symbol): > 10 µM | IC50 [2]: < 5 µM

CC1Cn2ncc(C(=O)N(C)C3CC3)c2CN1C(=O)c1cc2ccccc2[nH]1 (racemic) [Example 2, N-cyclopropyl-5-(1H-indole-2-carbonyl)-N,6-dimethyl-4H,5H,6H,7H-pyrazolo[1,5-a]pyrazine-3-carboxamide]
CC50 at 6 days [1]: > 10 µM | EC50 (HBV): < 1 µM | IC50 [2]: < 5 µM

CN(C(=O)c1cnn2c1CN(C(=O)c1cc3cc(F)c(Cl)cc3[nH]1)CC2)C1(COC(F)F)CC1 [Example 23, 5-(6-chloro-5-fluoro-1H-indole-2-carbonyl)-N-{1-[(difluoromethoxy)methyl]cyclopropyl}-N-methyl-4H,5H,6H,7H-pyrazolo[1,5-a]pyrazine-3-carboxamide]
CC50 at 6 days [1]: > 10 µM | EC50 (HBV): < 1 µM | IC50 [2]: < 5 µM

O=C(c1cc2ccccc2[nH]1)N1CCn2ncc(C(=O)N3CCC(F)(F)C3)c2C1 [Example 122, 2-[3-(3,3-difluoropyrrolidine-1-carbonyl)-4H,5H,6H,7H-pyrazolo[1,5-a]pyrazine-5-carbonyl]-1H-indole]
CC50 at 6 days [1]: > 10 µM | EC50 (HBV): < 1 µM | IC50 [2]: < 5 µM

CN(C(=O)c1cnn2c1CN(C(=O)c1cc3c(F)c(F)ccc3[nH]1)CC2)C1(COC(F)F)CC1 [Example 21, 5-(4,5-difluoro-1H-indole-2-carbonyl)-N-{1-[(difluoromethoxy)methyl]cyclopropyl}-N-methyl-4H,5H,6H,7H-pyrazolo[1,5-a]pyrazine-3-carboxamide]
CC50 at 6 days [1]: > 10 µM | EC50 (HBV): < 1 µM | IC50 [2]: < 5 µM

CN(C(=O)c1cnn2c1CN(C(=O)c1cc3ccccc3[nH]1)CC2)C1(COCCO)CC1 [Example 64, N-{1-[(2-hydroxyethoxy)methyl]cyclopropyl}-5-(1H-indole-2-carbonyl)-N-methyl-4H,5H,6H,7H-pyrazolo[1,5-a]pyrazine-3-carboxamide]
CC50 at 6 days [1]: > 10 µM | EC50 (HBV): < 1 µM | IC50 [2]: < 5 µM

COCC1(N(C)C(=O)c2cnn3c2CN(C(=O)c2cc4ccccc4[nH]2)CC3)CC1 [Example 9, 5-(1H-indole-2-carbonyl)-N-[1-(methoxymethyl)cyclopropyl]-N-methyl-4H,5H,6H,7H-pyrazolo[1,5-a]pyrazine-3-carboxamide]
CC50 at 6 days [1]: > 10 µM | EC50 (HBV): < 1 µM | IC50 [2]: < 5 µM

O=C(c1cc2ccccc2[nH]1)N1CCn2ncc(C3CCCO3)c2C1 (stereo not drawn) [Example 73, 2-[3-(oxolan-2-yl)-4H,5H,6H,7H-pyrazolo[1,5-a]pyrazine-5-carbonyl]-1H-indole]
CC50 at 6 days [1]: > 10 µM | EC50 (HBV): < 1 µM | IC50 [2]: < 5 µM

C[C@H](NC(=O)c1cnn2c1CN(C(=O)c1cc3ccccc3[nH]1)CC2)C(F)(F)F [Example 78, 5-(1H-indole-2-carbonyl)-N-[(2S)-1,1,1-trifluoropropan-2-yl]-4H,5H,6H,7H-pyrazolo[1,5-a]pyrazine-3-carboxamide]
CC50 at 6 days [1]: > 10 µM | EC50 (HBV): < 1 µM | IC50 [2]: < 5 µM

O=C(c1cc2ccccc2[nH]1)N1CCn2ncc(N3CCC4(CC4)C3=O)c2C1 [Example 76, 5-[5-(1H-indole-2-carbonyl)-4H,5H,6H,7H-pyrazolo[1,5-a]pyrazin-3-yl]-5-azaspiro[2.4]heptan-4-one]
CC50 at 6 days [1]: > 10 µM | EC50 (HBV): 1 to 10 µM | IC50 [2]: 5 to 10 µM

O=C(NC1(c2ccccn2)CC1)c1cnn2c1CN(C(=O)c1cc3ccccc3[nH]1)CC2 [Example 61, 5-(1H-indole-2-carbonyl)-N-[1-(pyridin-2-yl)cyclopropyl]-4H,5H,6H,7H-pyrazolo[1,5-a]pyrazine-3-carboxamide]
CC50 at 6 days [1]: > 10 µM | EC50 (HBV): < 1 µM | IC50 [2]: < 5 µM

O=C(O)c1ccccc1C1CC(=O)N(c2cnn3c2CN(C(=O)c2cc4ccccc4[nH]2)CC3)C1 (stereo not drawn) [Example 86, 2-{1-[5-(1H-indole-2-carbonyl)-4H,5H,6H,7H-pyrazolo[1,5-a]pyrazin-3-yl]-5-oxopyrrolidin-3-yl}benzoic Acid]
CC50 at 6 days [1]: > 10 µM | EC50 (HBV): 1 to 10 µM | IC50 [2]: < 5 µM

O=C(c1cc2ccccc2[nH]1)N1CCn2ncc(C(=O)N3CCOC(F)(F)C3)c2C1 [Example 69, 2-[3-(2,2-difluoromorpholine-4-carbonyl)-4H,5H,6H,7H-pyrazolo[1,5-a]pyrazine-5-carbonyl]-1H-indole]
CC50 at 6 days [1]: > 10 µM | EC50 (HBV): < 1 µM | IC50 [2]: < 5 µM

O=C(c1cc2ccccc2[nH]1)N1CCn2ncc(C(=O)N(CCOC(F)F)C3CC3)c2C1 [Example 90, N-cyclopropyl-N-[2-(difluoromethoxy)ethyl]-5-(1H-indole-2-carbonyl)-4H,5H,6H,7H-pyrazolo[1,5-a]pyrazine-3-carboxamide]
CC50 at 6 days [1]: > 10 µM | EC50 (HBV): < 1 µM | IC50 [2]: < 5 µM
